Converted amounts (≈) assume the structure as drawn. Where two headings read alike, the source gives them in different places.
Legend:
hCB1R [1] = target: T1, hCB1R (Homo sapiens, UniProt P21554); assay: DiscoveRx HitHunter cAMP inhibition assay; details: for PAM bias between cAMP inhibition and βarrestin2 recruitment (ΔΔLogR): 100 nM CP55,940 as agonist; for PAM bias between cAMP inhibition and βarrestin2 recruitment (ΔΔLogR) / agonist bias between cAMP inhibition and βarrestin2 recruitment (ΔΔLogR): 90 min, operational model; for agonist bias between cAMP inhibition and βarrestin2 recruitment (ΔΔLogR): GAT compound alone
T1 sequence (P21554 whole entry): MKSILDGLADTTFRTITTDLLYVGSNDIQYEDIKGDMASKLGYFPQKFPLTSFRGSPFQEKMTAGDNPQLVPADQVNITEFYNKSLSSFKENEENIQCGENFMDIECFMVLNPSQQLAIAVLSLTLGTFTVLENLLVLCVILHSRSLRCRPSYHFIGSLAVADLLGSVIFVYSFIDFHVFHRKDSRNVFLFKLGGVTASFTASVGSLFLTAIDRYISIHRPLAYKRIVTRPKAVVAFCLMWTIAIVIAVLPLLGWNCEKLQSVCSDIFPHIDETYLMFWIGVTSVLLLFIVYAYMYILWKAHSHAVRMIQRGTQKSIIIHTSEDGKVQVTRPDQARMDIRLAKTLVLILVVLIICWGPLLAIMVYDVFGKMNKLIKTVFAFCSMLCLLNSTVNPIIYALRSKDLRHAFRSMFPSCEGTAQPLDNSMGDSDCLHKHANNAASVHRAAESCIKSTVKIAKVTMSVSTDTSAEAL

GFP-rCB1R = GFP-rCB1R (Rattus norvegicus, UniProt P20272); assay: cAMP inhibition; format: cell-based; details: for ΔEC50 / ΔEMax: difference between CP55,940 alone and maximal concentration of GAT compound
Chain of GFP-rCB1R (P20272 whole entry): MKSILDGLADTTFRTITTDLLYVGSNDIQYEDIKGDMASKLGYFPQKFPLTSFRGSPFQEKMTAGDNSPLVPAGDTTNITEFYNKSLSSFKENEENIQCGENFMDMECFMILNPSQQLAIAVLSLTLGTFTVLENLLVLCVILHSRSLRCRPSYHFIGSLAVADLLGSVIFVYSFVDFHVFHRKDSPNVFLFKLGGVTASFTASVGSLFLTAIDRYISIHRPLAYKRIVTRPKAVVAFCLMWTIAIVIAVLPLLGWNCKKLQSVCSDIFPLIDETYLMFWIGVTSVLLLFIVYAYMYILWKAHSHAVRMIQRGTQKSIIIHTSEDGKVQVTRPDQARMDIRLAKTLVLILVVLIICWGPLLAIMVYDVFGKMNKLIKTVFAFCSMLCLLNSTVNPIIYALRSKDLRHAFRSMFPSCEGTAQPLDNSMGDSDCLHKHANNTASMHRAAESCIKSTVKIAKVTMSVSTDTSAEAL

hCB1R [2] = target: T1, hCB1R; assay: DiscoveRx PathHunter βarrestin2 recruitment assay; details: for concentrations promoting CP55,940-dependent βarrestin2 recruitment: 100 nM CP55,940, 90 min
[3] = tested on: CFA-induced mechanical allodynia; details: same CFA model; cited from earlier work
[4] = tested on: CFA-induced mechanical allodynia; assay: CFA-induced inflammatory nociception, mechanical allodynia; format: in vivo, mouse; details: for mechanical paw withdrawal threshold at 30 min post-injection: CFA-injected paw; for mechanical paw withdrawal threshold at 30 min post-injection / anti-allodynic efficacy at 4 h post injection: vs vehicle; for duration of efficacy post injection / suppression of CFA-induced mechanical allodynia in CB1KO mice: ipsilateral paw; for paw withdrawal thresholds in the contralateral paw: 0.1-30 mg/kg i.p.; for doses that elevated mechanical paw withdrawal thresholds relative to vehicle: CFA-injected (ipsilateral) paw, WT mice
C57BL/6 mice [5] = assay: Triad assessment: catalepsy; details: 0.1, 1, 3, or 10 mg/kg (i.p.); 5 min; vs vehicle
C57BL/6 mice [6] = assay: Triad assessment: body temperature; details: 0.1, 1, 3, or 10 mg/kg (i.p.); 15 min; vs vehicle
C57BL/6 mice [7] = assay: Triad assessment: warm water tail-flick test; details: 0.1-10 mg/kg i.p.; 20 min; significant vs vehicle at 3 and 10 mg/kg
physchem = details: pH 7.4
[8] = tested on: ocular hypertensive NEE mice; assay: Intraocular pressure in ocular hypertensive NEE mice; details: topical 0.2% 9j alone
[9] = tested on: autaptic hippocampal neurons; assay: Electrophysiology in autaptic hippocampal neurons; details: after 9j treatment
C57BL/6 mice [10] = details: orthosteric agonist at 10 mg/kg; cited from earlier work
C57BL/6 mice [11] = details: orthosteric agonist at 10 mg/kg; cited from earlier work; remark: listed apart in the source
[12] = tested on: normotensive C57Bl/6J mice; details: cited from earlier work

Q: Which “Standard agonist EMax, HitHunter cAMP” value (hCB1R [1]; standard agonist alone) does the source give for CCCCCCC(C)(C)c1ccc([C@@H]2C[C@H](O)CC[C@H]2CCCO)c(O)c1 [CP55,940, reference compound] here?
A: 1.5 ± 0.07 fold over baseline

Q: What about the “CP55,940 EMax, Vehicle (0)” value (GFP-rCB1R; CP55,940 without GAT compound, upper plateau) of the same compound?
A: 100 ± 6.4 % Forskolin

Q: What about the “Standard agonist EMax, PathHunter βarrestin2” value (hCB1R [2]; standard agonist alone) of the same compound?
A: 8.0 ± 1.3 fold over baseline

Q: With O=[N+]([O-])CC(c1ccccc1)c1c(-c2ccccc2)[nH]c2ccccc12 (centres unmarked) [Compound 6d, 3-(2-Nitro-1-phenylethyl)-2-phenyl-1H-indole] as the compound, how does the Emax (hCB1R [1]; read-out: cAMP EMax, PAM activity, CP55,940 at EC20 + analog, 30 min, mean ± SEM) read?
A: 110 ± 6.8%

Q: What about the “anti-allodynic efficacy at 1.5 h” value [3] of the same compound?
A: present

Q: What about the “anti-allodynic efficacy at […] post injection” value [3] of the same compound?
A: absent

Q: What about the “time of maximal anti-allodynic efficacy post-injection” value [3] of the same compound?
A: 30 min

Q: For O=[N+]([O-])CC(c1ccccc1F)c1c(-c2cccc(F)c2)[nH]c2cc(F)ccc12 (centres unmarked) [Compound 6r, 6-Fluoro-2-(3-fluorophenyl)-3-(1-(2-fluorophenyl)-2-nitroethyl)-1H-indole], which “mechanical paw withdrawal threshold at 30 min post-injection” value ([4]; 30 mg/kg i.p.) is on record?
A: increased mechanical paw withdrawal threshold

Q: And the “duration of efficacy post injection” value ([4]; 30 mg/kg i.p.)?
A: at least 2.5 h

Q: What about the “suppression of CFA-induced mechanical allodynia in CB1KO mice” value ([4]; 30 mg/kg i.p.) of the same compound?
A: Neither

Q: What about the “anti-allodynic efficacy at 4 h post injection” value ([4]; 30 mg/kg i.p.) of the same compound?
A: no longer present

Q: What about the “paw withdrawal thresholds in the contralateral paw” value [4] of the same compound?
A: without altering paw withdrawal thresholds in the contralateral paw

Q: What about the “dose that maximally suppressed CFA-induced inflammatory pain” value ([4]; i.p.) of the same compound?
A: 30 mg/kg

Q: And the “doses that elevated mechanical paw withdrawal thresholds relative to vehicle” value ([4]; i.p.)?
A: 3 to 30 mg/kg

Q: What about the catalepsy (C57BL/6 mice [5]) of the same compound?
A: did not produce catalepsy

Q: What about the “PAM bias between cAMP inhibition and βarrestin2 recruitment (ΔΔLogR)” value (hCB1R [1]) of the same compound?
A: display bias toward cAMP inhibition

Q: What about the “agonist bias between cAMP inhibition and βarrestin2 recruitment (ΔΔLogR)” value (hCB1R [1]) of the same compound?
A: agonist bias toward cAMP inhibition

Q: What about the ΔEC50 (GFP-rCB1R) of the same compound?
A: -12 ± 5.7 nM

Q: What about the ΔEMax (GFP-rCB1R) of the same compound?
A: 68 ± 4.3 % Forskolin

Q: And the hypothermia (C57BL/6 mice [6])?
A: did not produce catalepsy or hypothermia

Q: And the “concentrations promoting CP55,940-dependent βarrestin2 recruitment” value (hCB1R [2])?
A: ≥ 190 nM

Q: What about the “anti-nociceptive effect in the tail flick assay” value (C57BL/6 mice [7]) of the same compound?
A: dose-dependent anti-nociceptive effect

Q: For O=[N+]([O-])CC(c1ccccc1F)c1c(-c2cccc(F)c2)[nH]c2c(F)cccc12 (centres unmarked) [Compound 6s, 7-Fluoro-2-(3-fluorophenyl)-3-(1-(2-fluorophenyl)-2-nitroethyl)-1H-indole], which “antinociceptive efficacy compared with 6r at […] post injection” value ([4]; 30 mg/kg i.p.) is on record?
A: greater antinociceptive efficacy than 6r

Q: And the “mechanical paw withdrawal threshold at 30 min post-injection” value ([4]; 30 mg/kg i.p.)?
A: increased mechanical paw withdrawal threshold

Q: And the “duration of efficacy post injection” value ([4]; 30 mg/kg i.p.)?
A: at least 2.5 h

Q: What about the “suppression of CFA-induced mechanical allodynia in CB1KO mice” value ([4]; 30 mg/kg i.p.) of the same compound?
A: Neither

Q: And the “anti-allodynic efficacy at 4 h post injection” value ([4]; 30 mg/kg i.p.)?
A: no longer present

Q: What about the “paw withdrawal thresholds in the contralateral paw” value [4] of the same compound?
A: without altering paw withdrawal thresholds in the contralateral paw

Q: And the “doses that elevated mechanical paw withdrawal thresholds relative to vehicle” value ([4]; i.p.)?
A: 3 to 30 mg/kg

Q: And the catalepsy (C57BL/6 mice [5])?
A: did not produce catalepsy

Q: And the “PAM bias between cAMP inhibition and βarrestin2 recruitment (ΔΔLogR)” value (hCB1R [1])?
A: display bias toward cAMP inhibition

Q: And the “agonist bias between cAMP inhibition and βarrestin2 recruitment (ΔΔLogR)” value (hCB1R [1])?
A: agonist bias toward cAMP inhibition

Q: What about the ΔEC50 (GFP-rCB1R) of the same compound?
A: -12 ± 8.0 nM

Q: What about the ΔEMax (GFP-rCB1R) of the same compound?
A: 67 ± 15 % Forskolin

Q: What about the hypothermia (C57BL/6 mice [6]) of the same compound?
A: did not produce catalepsy or hypothermia

Q: What about the “concentrations promoting CP55,940-dependent βarrestin2 recruitment” value (hCB1R [2]) of the same compound?
A: ≥ 3500 nM

Q: And the “anti-nociceptive effect in the tail flick assay” value (C57BL/6 mice [7])?
A: dose-dependent anti-nociceptive effect

Q: With O=[N+]([O-])CC(c1ccccn1)c1c(-c2ccccc2)[nH]c2ccccc12 (centres unmarked) [Compound 9a, 3-(2-Nitro-1-(pyridin-2-yl)ethyl)-2-phenyl-1H-indole] as the compound, how does the solubility thermodynamic at 24 h (physchem) read?
A: 1 µg/mL (≈ 2.91 µM)

Q: With O=[N+]([O-])CC(c1cccnc1)c1c(-c2ccccc2)[nH]c2ccccc12 (centres unmarked) [Compound 9b, 3-(2-Nitro-1-(pyridin-3-yl)ethyl)-2-phenyl-1H-indole] as the compound, how does the solubility thermodynamic (physchem) read?
A: 0.4 µg/mL (≈ 1.16 µM)

Q: Which solubility thermodynamic (physchem) does the source give for O=[N+]([O-])CC(c1ccncc1)c1c(-c2ccccc2)[nH]c2ccccc12 (centres unmarked) [Compound 9c, 3-(2-Nitro-1-(pyridin-4-yl)ethyl)-2-phenyl-1H-indole] here?
A: 12.6 µg/mL (≈ 36.7 µM)

Q: With O=[N+]([O-])CC(c1ccccc1)c1c(-c2cccnc2)[nH]c2ccccc12 (centres unmarked) [Compound 9d, 3-(2-Nitro-1-phenylethyl)-2-(pyridin-3-yl)-1H-indole] as the compound, how does the solubility thermodynamic (physchem) read?
A: 1.7 µg/mL (≈ 4.95 µM)

Q: Which solubility thermodynamic (physchem) does the source give for O=[N+]([O-])CC(c1ccccc1)c1c(-c2ccncc2)[nH]c2ccccc12 (centres unmarked) [Compound 9e, 3-(2-Nitro-1-phenylethyl)-2-(pyridin-4-yl)-1H-indole] here?
A: 0.7 µg/mL (≈ 2.04 µM)

Q: With O=[N+]([O-])CC(c1ccccc1)c1c(-c2ccccc2)[nH]c2cccnc12 (centres unmarked) [Compound 9f, 3-(2-Nitro-1-phenylethyl)-2-phenyl-1H-pyrrolo[3,2-b]pyridine] as the compound, how does the solubility thermodynamic (physchem) read?
A: 3.8 µg/mL (≈ 11.1 µM)

Q: For O=[N+]([O-])CC(c1ccccc1)c1c(-c2ccccc2)[nH]c2ccncc12 (centres unmarked) [Compound 9g, 3-(2-Nitro-1-phenylethyl)-2-phenyl-1H-pyrrolo[3,2-c]pyridine], which solubility thermodynamic (physchem) is on record?
A: 8.1 µg/mL (≈ 23.6 µM)

Q: With O=[N+]([O-])CC(c1ccccc1)c1c(-c2ccccc2)[nH]c2cnccc12 (centres unmarked) [Compound 9h, 3-(2-Nitro-1-phenylethyl)-2-phenyl-1H-pyrrolo[2,3-c]pyridine] as the compound, how does the solubility thermodynamic (physchem) read?
A: 2.3 µg/mL (≈ 6.7 µM)

Q: Which solubility thermodynamic (physchem) does the source give for O=[N+]([O-])CC(c1ccccc1)c1c(-c2ccccc2)[nH]c2ncccc12 (centres unmarked) [Compound 9i, 3-(2-Nitro-1-phenylethyl)-2-phenyl-1H-pyrrolo[2,3-b]pyridine] here?
A: 54.6 µg/mL (≈ 159 µM)

Q: Which “change in IOP from baseline, 1 hour” value ([8]; 1 h) does the source give for O=[N+]([O-])CC(c1ncccc1F)c1c(-c2ccccc2)[nH]c2ccccc12 (centres unmarked) [Compound 9j, 3-(1-(3-Fluoropyridin-2-yl)-2-nitroethyl)-2-phenyl-1H-indole] here?
A: −2.5 ± 1 mmHg

Q: And the “change in IOP from baseline, 6 hours” value ([8]; 6 h)?
A: −3.6 ± 1 mmHg

Q: And the “IOP decrease at 12 hours” value ([8]; 12 h)?
A: no longer present

Q: What about the DSE response [9] of the same compound?
A: DSE was enhanced

Q: And the catalepsy (C57BL/6 mice [5])?
A: did not produce catalepsy

Q: What about the hypothermia (C57BL/6 mice [6]) of the same compound?
A: did not produce catalepsy or hypothermia

Q: With CCCCCc1cc(O)c2c(c1)OC(C)(C)[C@@H]1CCC(C)=C[C@@H]21 [THC, Δ[9]-tetrahydrocannabinol] as the compound, how does the catalepsy (C57BL/6 mice [10]) read?
A: significant catalepsy

Q: And the hypothermic effects (C57BL/6 mice [11])?
A: hypothermic effects

Q: With Cc1c(C(=O)c2cccc3ccccc23)c2cccc3c2n1[C@H](CN1CCOCC1)CO3 [WIN] as the compound, how does the “effect on IOP” value ([12]; topical 1% WIN) read?
A: decreases IOP

Q: What about the “effect on IOP” value ([12]; topical WIN […] (subthreshold)) of the same compound?
A: does not affect IOP
